Patent US6784174B1, “Pyridine and pyrimidine derivatives and their use as inhibitors of cytokine mediated disease” (AstraZeneca AB, priority 1999, dated 2004)

molecular target: T1, p38α (Homo sapiens, UniProt Q16539); assay: In vitro enzyme assay, p38 kinase (p38α isoform); type: biochemical
T1 construct: c-myc (N); 6His (N); made in house; host or cells: E. coli (PET vectors)
Procedure: The ability of compounds of the invention to inhibit the enzyme p38 kinase was assessed. Activity of particular test compounds against each of the p38α and p38β isoforms of the enzyme was determined.
Human recombinant MKK6 (GenBank Accesion Number G1209672) was isolated from Image clone 45578 (Genomics, 1996, 33, 151) and utilised to produce protein in the form of a GST fusion protein in a pGEX vector using analogous procedures to those disclosed by J. Han et al., Journal of Biological Chemistry, 1996, 271, 2886-2891. p38α (GenBank Accession Number G529039) and p38β (GenBank Accession Number G1469305) were isolated by PCR amplification of human lymphoblastoid cDNA (GenBank Accession Number GM1416) and human foetal brain cDNA [synthesised from mRNA (Clontech, catalogue no. 6525-1) using a Gibco superscript cDNA synthesis kit] respectively using oligonucleotides designed for the 5′ and 3′ ends of the human p38α and p38β genes using analogous procedures to those described by J. Han et al., Biochimica et Biophysica Acta, 1995, 126, 224-227 and Y. Jiang et al., Journal of Biological Chemistry, 1996, 271, 17920-17926.
Both p38 protein isoforms were expressed in e coli in PET vectors. Human recombinant p38α and p38β isoforms were produced as 5′ c-myc, 6His tagged proteins. Both MKK6 and the p38 proteins were purified using standard protocols: the GST MKK6 was purified using a glutathione sepharose column and the p38 proteins were purified using nickel chelate columns.
The p38 enzymes were activated prior to use by incubation with MKK6 for 3 hours at 30° C. The unactivated coli-expressed MKK6 retained sufficient activity to fully activate both isoforms of p38. The activation incubate comprised p38α (10 μl of 10 mg/ml) or p38β (10 μl of 5 mg/ml) together with MKK6 (10 μl of 1 mg/ml), ‘Kinase buffer’ [100 μl; pH 7.4 buffer comprising Tris (50 mM), EGTA (0.1 mM), sodium orthovanadate (0.1 mM) and β-mercaptoethanol (0.1%)] and MgATP (30 μl of 50 mM Mg(OCOCH3)2 and 0.5 mM ATP). This produced enough activated p38 enzyme for 3 Microtiter plates.
Test compounds were solubilised in DMSO and 10 μl of a 1:10 diluted sample in ‘Kinase Buffer’ was added to a well in a Microtiter plate. […] The precipitated protein was phosphorylated by p38 kinase and test compounds were assessed for their ability to inhibit this phosphorylation. The plates were filtered using a Canberra Packard Unifilter and washed with 2% TCA, dried overnight and counted on a Top Count scintillation counter.
Test compounds were tested initially at a single dose and active compounds were retested to allow IC50 values to be determined.

T1 sequence (Q16539 whole entry, canonical isoform): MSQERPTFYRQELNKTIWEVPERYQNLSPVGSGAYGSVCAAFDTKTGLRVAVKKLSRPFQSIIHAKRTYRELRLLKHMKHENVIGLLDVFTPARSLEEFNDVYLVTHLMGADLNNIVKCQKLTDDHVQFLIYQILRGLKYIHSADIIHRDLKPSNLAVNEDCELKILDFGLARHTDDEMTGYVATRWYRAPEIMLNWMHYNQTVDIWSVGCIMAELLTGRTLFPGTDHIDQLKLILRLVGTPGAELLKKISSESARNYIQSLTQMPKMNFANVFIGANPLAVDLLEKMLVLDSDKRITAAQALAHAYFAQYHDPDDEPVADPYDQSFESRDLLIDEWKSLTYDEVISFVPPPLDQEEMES

Compound	IC50 [nM]
Cc1ccc(NC(=O)c2ccnc(N3CCOCC3)c2)cc1Nc1ncnc2c(C)csc12 [3(1)]	40
Cc1ccc(NC(=O)c2ccnc(N3CCOCC3)c2)cc1Nc1ncnc2sccc12 [3(2)]	70
Cc1ccc(NC(=O)c2ccnc(N3CCOCC3)c2)cc1Nc1ncnc2ccsc12 [Example 1, 4-[2-Methyl-5-(2-morpholinopyridine-4-carboxamido)anilino]thieno[3,2-d]pyrimidine]	60
Cc1ccc(NC(=O)c2ccnc(N3CCOCC3)c2)cc1Nc1ncnc2scc(C)c12 [Example 2, 4-[2-Methyl-5-(2-morpholinopyridine-4-carboxamido)anilino]-5-methylthieno[2,3-d]pyrimidine]	340
